Measured values taken from patent US20180021773A1, “ASSAY DEVICES, METHODS FOR CARRYING OUT ASSAYS, ASSAY KITS AND METHOD FOR MANUFACTURING ASSAY DEVICES” (Loughborough University, priority 2014, published 2018).

Key:
[1] = tested on: Staphylococcus Aureus ATCC 25923; assay: Colourimetric enzymatic assays in loaded capillaries; type: cell-based; settings: overnight at 37° C.; substrate per capillary from Table 4, 500 mg/mL; yellow = positive reaction
Procedure: (§1) An experiment was conducted to test a combination of sugar fermentation and enzymatic assays for the specific identification of bacteria. Individual 200 micron internal diameter capillaries coated with cross-linked HMW PVA were individually loaded with different reagents to perform a combination of colourimetric sugar fermentation and enzymatic assays as shown in Table 4. [table] […] Staphylococcus Epidermidis ATCC 12228 or Staphylococcus Saprophyticus ATCC 15305 resuspended in Microbatch Staph 12 S suspending media. The strips were incubated overnight at 37° C., and positive/negative identification of assays on individual capillaries was performed by imaging the strips with CCD camera. Enzyme detection: enzymatic substrates are normally colourless. If bacteria have the targeted enzymes, the substrates will be hydrolysed, releasing compounds that will produce a yellow colour indicating a positive reaction.

[2] = tested on: Staphylococcus Saprophyticus ATCC 15305; assay: as above; type: cell-based; settings: overnight at 37° C.; substrate per capillary from Table 4, 500 mg/mL; yellow = positive reaction
Procedure: as §1

[3] = tested on: Staphylococcus Epidermidis ATCC 12228; assay: as above; type: cell-based; settings: overnight at 37° C.; substrate per capillary from Table 4, 500 mg/mL; yellow = positive reaction
Procedure: as §1

[4] = tested on: Staphylococcus Aureus ATCC 25923; assay: Colourimetric fermentation assays in loaded capillaries; type: cell-based; settings: overnight at 37° C.; reagent per capillary from Table 4; orange to yellow = fermentation, orange to purple = arginine/urea degradation
Procedure: (§2) An experiment was conducted to test a combination of sugar fermentation and enzymatic assays for the specific identification of bacteria. Individual 200 micron internal diameter capillaries coated with cross-linked HMW PVA were individually loaded with different reagents to perform a combination of colourimetric sugar fermentation and enzymatic assays as shown in Table 4. [table] […] Staphylococcus Epidermidis ATCC 12228 or Staphylococcus Saprophyticus ATCC 15305 resuspended in Microbatch Staph 12 S suspending media. The strips were incubated overnight at 37° C., and positive/negative identification of assays on individual capillaries was performed by imaging the strips with CCD camera. Sugar Fermentation: if a sugar is fermented, bacteria will produce acid end products and the pH of the medium will drop. The media contains a pH indicator to indicate acid production. A positive test for sugar fermentation consists of a colour change from orange to yellow, indicating a pH change to acidic. Arginine and Urea degradation (detection of Arginine dihydrolase/Urease): when arginine or urea are present, the pH of the medium rises. Accordingly, a positive test for detection of arginine dihydrolase or urease consists of a colour change from orange to purple indicating a pH change to alkaline.

[5] = tested on: Staphylococcus Saprophyticus ATCC 15305; assay: as above; type: cell-based; settings: overnight at 37° C.; reagent per capillary from Table 4; orange to yellow = fermentation, orange to purple = arginine/urea degradation
Procedure: as §2

[6] = tested on: Staphylococcus Epidermidis ATCC 12228; assay: as above; type: cell-based; settings: overnight at 37° C.; reagent per capillary from Table 4; orange to yellow = fermentation, orange to purple = arginine/urea degradation
Procedure: as §2

[7] = ONPG released into water from loaded cross-linked PVA coated strips, enzymatic endpoint analysis at 420 nm; type: physicochemical; settings: 1 hour, 60 mm strips
Procedure: Reagent loading and release from the hydrophilic layer was quantified using a fluorescent dye and colorimetric enzyme substrates. For this purpose, an FEP microcapillary film was coated with cross-linked PVA and loaded with two assay reagents, the enzymatic substrate ortho-nitrophenyl-β-galactoside (ONPG) which produces a yellow colour in the presence of beta-galactosidase, and the fluorescent dye fluorescein. Loading was performed by incubation with a water or dimethylformamide (DMF)-based reagent solution for between 5 minutes and 2 h, and subsequent removal of the loading solution using a syringe, followed by air drying of the capillaries by repeated aspiration of air through the film using a syringe. Following loading of the capillaries, the amount of reagent loaded was quantified using three different methods.
The water taken up was then removed using a syringe and ONPG concentration measured by enzymatic endpoint analysis in a microwell plate well through the addition of an excess of beta-galactosidase enzyme and monitoring absorbance at 420 nm using a microwell plate reader. Released concentrations were determined by comparison of absorbance with a calibration curve of known concentrations of ONPG.

[8] = ONPG loaded in strips, determined by dipping into beta-galactosidase solution, absorbance at 420 nm; type: physicochemical; settings: loaded 5 minutes with 150 mg/ml in DMF; cross-linked PVA; 1 hour with beta-galactosidase 0.2 U/μL
Procedure: Secondly, the concentration of loaded ONPG was determined inside the capillary film by dipping an FEP microcapillary film coated with cross-linked PVA, and loaded for 5 minutes with 150 mg/ml ONPG dissolved in DMF, into aqueous solutions of beta-galactosidase enzyme (at 0.2 U/μL). The solution was drawn up into test strips, and incubated for 1 hour to allow complete enzymatic conversion of the loaded ONPG. Subsequently, solution was removed from MCF test strips using a syringe and absorbance read using a microplate reader at 420 nm, and absorbance compared to a calibration curve of known concentrations of enzymatically converted ONPG.

[9] = tested on: Salmonella typhimurium (strain SL3261); assay: ONPG loaded test strips dipped into bacterial culture, yellow colour; type: cell-based; settings: IPTG-cultured (1 mM, 3 hours); 1 hour incubation at 37 degrees C
Procedure: (§3) A 10 bore FEP microcapillary film was internally coated with cross-linked PVA. Test microcapillary film was prepared by first loading the capillaries with ONPG by filling the capillaries with a 150 mg·mL^−1 ONPG substrate solution in DMF and incubating for 5 minutes. The substrate solution was then removed and the microcapillary film air dried using a syringe to pass air repeatedly through the capillaries. Seven test strips were cut from this ONPG loaded microcapillary film and dipped into one of 7 different aqueous samples. These comprised water (1); sterile Luria-Bertani lysogeny broth (LB) media (2); a 0.1 U/μl solution of β-galactosidase enzyme (3); an overnight culture of E. coli (ATCC accession number: 25922) suspended in LB (4); an overnight culture of Salmonella typhimurium (strain SL3261) suspended in LB (5); an overnight culture of E. coli suspended in a phosphate buffer saline PBS (6); an overnight culture of S. typhimurium suspended in PBS (7). Negative control test strips consisting of PVA coated cross-linked PVA but not loaded with ONPG were dipped into the same samples (referred hereafter as no substrate). As a comparison, similar assays were also performed in 96 well-plates with ONPG substrate solution (final concentration 1 mg·ml^−1) added to the different samples in a final volume of 100 μl. […]

[10] = tested on: E. coli (ATCC accession number: 25922); assay: as above; type: cell-based; settings: IPTG-cultured (1 mM, 3 hours); 1 hour incubation at 37 degrees C
Procedure: as §3

[11] = tested on: Salmonella typhimurium (strain SL3261); assay: ONPG assay in 96 well-plates (comparison); type: cell-based; settings: ONPG 1 mg/ml, overnight incubation
Procedure: (§4) A 10 bore FEP microcapillary film was internally coated with cross-linked PVA. Test microcapillary film was prepared by first loading the capillaries with ONPG by filling the capillaries with a 150 mg·mL^−1 ONPG substrate solution in DMF and incubating for 5 minutes. The substrate solution was then removed and the microcapillary film air dried using a syringe to pass air repeatedly through the capillaries. Seven test strips were cut from this ONPG loaded microcapillary film and dipped into one of 7 different aqueous samples. These comprised water (1); sterile Luria-Bertani lysogeny broth (LB) media (2); a 0.1 U/μl solution of β-galactosidase enzyme (3); an overnight culture of E. coli (ATCC accession number: 25922) suspended in LB (4); an overnight culture of Salmonella typhimurium (strain SL3261) suspended in LB (5); an overnight culture of E. coli suspended in a phosphate buffer saline PBS (6); an overnight culture of S. typhimurium suspended in PBS (7). Negative control test strips consisting of PVA coated cross-linked PVA but not loaded with ONPG were dipped into the same samples (referred hereafter as no substrate). As a comparison, similar assays were also performed in 96 well-plates with ONPG substrate solution (final concentration 1 mg·ml^−1) added to the different samples in a final volume of 100 μl.

[12] = tested on: E. coli (ATCC accession number: 25922); assay: ONPG assay in 96 well-plates (comparison); type: cell-based; settings: ONPG 1 mg/ml, overnight incubation
Procedure: as §4

[13] = ONPG released into water from strips with different hydrophilic coatings; type: physicochemical; settings: loaded 150 g/L, 5 minute
Procedure: The polymer solutions were then removed from the microcapillary film and the film dried by repeatedly aspirating air through the film strip using a syringe. An FEP microcapillary film coated with cross-linked PVA was used as a control. 8 cm lengths of each polymer coated film were then loaded with ONPG reagent by dipping the film into a 150 g/L ONPG solution. After a 5 minute incubation, the ONPG solution was removed and capillaries were dried using a syringe. The test films were then dipped into water, and the amount of ONPG reagent released into the water measured by a colorimetric endpoint determination using beta-galactosidase enzyme. With the cross-linked PVA coated test strips, 7.8 mg/ml ONPG was released, with gelatine coated test strips 7.2 mg/ml ONPG was released, and with HPMC coated test strips 21.5 mg/ml ONPG was released.

Salmonella typhimurium = assay: Sugar fermentation in sugar loaded test strips with Phenol Red Broth; type: cell-based; settings: sugar loaded from 1 g/L solution; 1 h at 37 degrees C; yellow = reduction in pH
Procedure: (§5) The ability of bacteria to ferment specific sugars is also frequently used to distinguish similar species of bacteria. For example, E. coli are able to ferment lactose and glucose and produce acid when they are incubated in the presence of either of these sugars.
(§6) A 10 bore FEP microcapillary film was internally coated with cross-linked PVA. Test microcapillary film was prepared by first loading the capillaries with either glucose or lactose by filling the capillaries with a 1 g/L solution in water and incubating for 5 minutes. The sugar solutions were then removed and the microcapillary film air dried using a syringe to pass air repeatedly through the capillaries. Three test strips were cut from each of the glucose or lactose loaded microcapillary film and dipped into one of 3 different aqueous samples. The first sample was a control sample that contained no bacteria. The second sample contained a suspension of E. coli. The third sample contained a suspension of Salmonella typhimurium. All three aqueous samples also contained Phenol Red Broth (Casein peptone 1 g/L; NaCl 0.5 g/L; Phenol Red 1 g/L). The samples all started out with a pH of 7 and were bright red in colour. When dipped, each aqueous sample was rapidly drawn up into the test strips, and the microcapillaries were clearly bright red in colour due to the Phenol Red indicator dye in the sample. […]

E. coli = assay: as above; type: cell-based; settings: sugar loaded from 1 g/L solution; 1 h at 37 degrees C; yellow = reduction in pH
Procedure: as §5, §6

SMILES: O=[N+]([O-])c1ccc(OP(=O)(O)O)cc1 [4-Nitrophenyl phosphate]
- colour, enzymatic assays [1]: Y

SMILES: O=[N+]([O-])c1ccc(O[C@@H]2O[C@H](CO)[C@H](O)[C@H](O)[C@H]2O)cc1 [4-Nitrophenyl β-D-galacto-pyranoside]
- colour, enzymatic assays [2]: Y

SMILES: O=C(O)[C@H]1O[C@@H](Oc2ccc([N+](=O)[O-])cc2)[C@H](O)[C@@H](O)[C@@H]1O [4-Nitrophenyl β-D-glucuronide]
- colour, enzymatic assays [1]: Y
- colour, enzymatic assays [3]: Y

SMILES: N=C(N)NCCC[C@H](N)C(=O)O [Arginine]
- colour, fermentation assays [4]: O/P

SMILES: OC[C@H]1O[C@H](O[C@H]2[C@H](O)[C@@H](O)[C@H](O)O[C@@H]2CO)[C@H](O)[C@@H](O)[C@@H]1O [Maltose]
- colour, fermentation assays [4]: Y
- colour, fermentation assays [5]: Y
- colour, fermentation assays [6]: Y

SMILES: OC[C@@H](O)[C@@H](O)[C@H](O)[C@H](O)CO [Mannitol]
- colour, fermentation assays [4]: Y
- colour, fermentation assays [5]: Y

SMILES: CC(=O)N[C@H]1C(O)O[C@H](CO)[C@@H](O)[C@@H]1O (stereo partly drawn) [N-Acetyl Glucosamine]
- colour, fermentation assays [4]: Y

SMILES: O=[N+]([O-])c1ccccc1O[C@@H]1O[C@H](CO)[C@H](O)[C@H](O)[C@H]1O [ONPG, ortho-nitrophenyl-β-galactoside]
- Released Concentration ([7]; Loading concentration 0.5 mg/ml In Water): 0.07 mg/mL
- Released Concentration ([7]; Loading concentration 1.0 mg/ml In Water): 0.01 mg/mL
- Released Concentration ([7]; Loading concentration 5.0 mg/ml In Water): 0.06 mg/mL
- Released Concentration ([7]; Loading concentration 150.0 mg/ml In DMF): 4.67 mg/mL
- average concentration loaded within test strips [8]: 3.4 mg/mL
- colour of ONPG-loaded test strips [9]: no yellow colour was observed
- colour of ONPG-loaded test strips [10]: a yellow colour was observed
- colour of wells [11]: E. coli but not S. typhimurium suspensions turned yellow
- colour of wells [12]: turned yellow
- ONPG released ([13]; HPMC coated test strips): 21.5 mg/mL
- ONPG released ([13]; cross-linked PVA coated test strips): 7.8 mg/mL
- ONPG released ([13]; gelatine coated test strips): 7.2 mg/mL

SMILES: OC[C@H]1O[C@@](CO)(O[C@H]2O[C@H](CO)[C@@H](O)[C@H](O)[C@H]2O)[C@@H](O)[C@@H]1O [Sucrose]
- colour, fermentation assays [4]: Y
- colour, fermentation assays [5]: Y
- colour, fermentation assays [6]: Y

SMILES: OC[C@H]1O[C@H](O[C@H]2O[C@H](CO)[C@@H](O)[C@H](O)[C@H]2O)[C@H](O)[C@@H](O)[C@@H]1O [Trehalose]
- colour, fermentation assays [4]: Y
- colour, fermentation assays [5]: Y

SMILES: OC[C@H]1O[C@@H](O[C@H]2[C@H](O)[C@@H](O)C(O)O[C@@H]2CO)[C@H](O)[C@@H](O)[C@H]1O (stereo partly drawn) [lactose]
- colour of sugar loaded test strips (Phenol Red) (Salmonella typhimurium): remained bright red
- colour of sugar loaded test strips (Phenol Red) (E. coli): turned yellow
